In article PMC9865601 (2023):

Tests used:
[1] = test system: Htelo-C (DNA, i motif) TAACCCTAACCCTAACCCTAACCCTAA; assay: bio-layer interferometry; conditions: 50 mM KCl; 50 mM Tris-HCl, 2% DMSO, 0.05% P20; pH 5.5 (also pH 7.5); tested to 100 µM
[2] = test system: c-myc (DNA, i motif) TCCCCACCTTCCCCACCCTCCCCACCCTCCCCA; assay: bio-layer interferometry; conditions: 50 mM KCl; 50 mM Tris-HCl, 2% DMSO, 0.05% P20; pH 5.5 (also pH 7.5); tested to 100 µM
[3] = test system: ssDNA (DNA, single strand) GGCATAGTGCGTGGGCG; assay: bio-layer interferometry; conditions: 50 mM KCl; 50 mM Tris-HCl, 2% DMSO, 0.05% P20; tested up to 100 µM
[4] = test system: HP-GC (DNA, hairpin) CGCGCGCGTTTTCGCGCGCG; assay: bio-layer interferometry; conditions: 50 mM KCl; 50 mM Tris-HCl, 2% DMSO, 0.05% P20; tested up to 100 µM
[5] = test system: DAP-Mut (DNA, single strand) CTACCGCTAACGCCTTCGCTCTCGCTTTC; assay: bio-layer interferometry; conditions: 50 mM KCl; 50 mM Tris-HCl, 2% DMSO, 0.05% P20; tested up to 100 µM
[6] = test system: HRAS (DNA, i motif) CGCCCGTGCCCTGCGCCCGCAACCCGA; assay: CD melting, heating ramp, 285 nm; conditions: 100 mM KCl; 10 mM LiAsO2Me2, pH 5.5; 2.5 µM oligo, 20 µM IMC-48
[7] = test system: bcl-2 (DNA, i motif) CAGCCCCGCTCCCGCCCCCTTCCTCCCGCGCCCGCCCCT; assay: CD melting, heating ramp, 285 nm; conditions: 100 mM KCl; 10 mM LiAsO2Me2, pH 5.5; 2.5 µM oligo, 20 µM IMC-48
[8] = test system: HTelo-C (DNA, i motif) TAACCCTAACCCTAACCCTAACCCTAA; assay: CD melting, heating ramp, 285 nm; conditions: 100 mM KCl; 10 mM LiAsO2Me2, pH 5.5; 2.5 µM oligo, 20 µM IMC-48
[9] = test system: c-myc (DNA, i motif) TCCCCACCTTCCCCACCCTCCCCACCCTCCCCA; assay: CD melting, heating ramp, 285 nm; conditions: 100 mM KCl; 10 mM LiAsO2Me2, pH 5.5; 2.5 µM oligo, 20 µM IMC-48

CC(C)CCC[C@@H](C)[C@H]1CC[C@H]2[C@@H]3CC[C@H]4C[C@H](NC(=O)C[N+]5(C)CCCCC5)CC[C@]4(C)[C@H]3CC[C@]12C
binding [1]: no
binding [2]: no
binding [3]: no
binding [4]: no
binding [5]: no
∆Tm [6]: −1.2 ± 1.1 °C
∆Tm [7]: 0.2 ± 0.4 °C
∆Tm [8]: −1.2 ± 0.5 °C
∆Tm [9]: −0.5 ± 0.1 °C
